Data published in US11933866B2, “Magnetic resonance maps for analyzing brain tissue” (Tel HaShomer Medical Research Infrastructure and Services …, priority 2013, dated 2024).

Assays:
[1] = tested on: glioblastoma; settings: TMZ during radiotherapy and for six months post radiotherapy; cited from earlier work
[2] = tested on: glioblastoma; settings: glioblastoma patients at progression after standard therapy; results of 2 studies; cited from earlier work
[3] = tested on: recurrent GBM; assay: Conventional MRI and maps follow-up of a recurrent GBM patient on Bevacizumab (Example 3); assay type: in vivo, human; settings: one patient, three months after initiation of Bevacizumab treatment
Text: Referring now to FIG. 8, a person with recurrent GBM was recruited 7 month after diagnosis prior to initiation of Bevacizumab treatment. At diagnosis the patients was operated on and received chemoradiation followed by TMZ. Six months later, at progression, the patient underwent a second resection and was recruited to the present Bevacizumab study 1 month after the second surgery, prior to initiation of the Bevacizumab treatment. At this point their enhancing lesion consisted of nearly 50% tumor according to the maps. […] Following this scan the patient was treated with re-irradiation (in parallel with continuing Bevacizumab) and was stabilized. […] The patient lived another ˜7 months after this last MRI scan.

[4] = tested on: cerebellar metastasis of breast cancer; assay: Delayed contrast extravasation MRI maps before and after Avastin treatment, patient case (Example 15); assay type: in vivo, human; settings: one patient, 2 years after stereotactic radiosurgery; maps before vs after Avastin treatment
Text: There is current dispute weather Avastin affects active tumor or only treatment effects.
A patient with cerebellar metastasis of breast cancer was recruited 2 years after stereotactic radiosurgery with suspected radiation necrosis.

Row | Molecule | additional toxicity [1] | tumor size [2] | conventional MRI finding [3] | blue/tumor volume in the maps ([3]; consistent with clinical deterioration) | response of tumor and radiation necrosis components in the maps [4]
1 | Cn1nnc2c(C(N)=O)ncn2c1=O [temozolomide] | minimal additional toxicity | – | – | – | –
2 | Bevacizumab | – | reduced tumor size in some glioblastoma patients | showed improvement | significantly larger blue/tumor volume | remarkable response of both components
